This passage reports IC50 results from patent publication US11464770B2, “Anticancer pharmaceutical composition” (NATIONAL CANCER CENTER, priority 2016, dated 2022).

As a reminder, the pIC50 is the negative decadic logarithm of the IC50, by convention in mol/L.

The test system of this test is colorectal cancer cell lines (e.g. DLD-1, HCT 116, SW620, HCT-15, HCT-8, RKO). The test can be described thus: Cell based assay, cell viability (CellTiter-Glo), colorectal cancer cell lines. The method, then: Commercially available bladder cancer, prostate cancer, lung cancer, breast cancer, blood cancer, pancreatic cancer, colorectal cancer, brain cancer, neuroblastoma, melanoma, liver cancer, cervical carcinoma, ovarian cancer, renal cancer, and papilloma cell lines were each treated with trypsin-EDTA and cultured, followed by being seeded in each well of a 96 well plate. After 24 hours of treatment at constant temperature, the respective cells were treated with the candidate compound so that a final concentration became 0 to 2 μM. The treated cells were additionally cultured for 72 hours, and cell viability was measured by using an ATP detection method (CellTiter-Glo® Luminescent Cell Viability Assay, Promega).
(In general: ATP-based viability assays read luminescence as a measure of living cells.)

The mark [1] stands for this setting: Homo sapiens, DLD-1, 72 hours treatment, read-out: IC50, colorectal cancer cell line DLD-1.
The mark [2] stands for this setting: Homo sapiens, HCT 116, 72 hours treatment, read-out: IC50, colorectal cancer cell line HCT 116.
[3] abbreviates: Homo sapiens, HCT-8, 72 hours treatment, read-out: IC50, colorectal cancer cell line HCT-8.
Where [4] appears, read: Homo sapiens, HCT-15, 72 hours treatment, read-out: IC50, colorectal cancer cell line HCT-15.
Setting [5] is: Homo sapiens, HT-29, 72 hours treatment, read-out: IC50, colorectal cancer cell line HT-29.
Where [6] appears, read: Homo sapiens, LoVo, 72 hours treatment, read-out: IC50, colorectal cancer cell line LoVo.
Setting [7] is: Homo sapiens, SW480, 72 hours treatment, read-out: IC50, colorectal cancer cell line SW480.
[8] abbreviates: Homo sapiens, SW-620, SW620, 72 hours treatment, read-out: IC50, colorectal cancer cell line SW620.
[9] abbreviates: RKO, 72 hours treatment, read-out: IC50, colorectal cancer cell line RKO.

Each structure is given as a SMILES string. pIC50: −log10 of the molar value. Read-outs that look alike come from different tables or passages of the source.

Turning to `CC(=O)c1c(SCc2cc(Cl)ccc2Cl)[nH]c2c(Br)ccc(Cl)c2c1=O` [Compound 43, 3-acetyl-8-bromo-5-chloro-2-((2,5-dichlorobenzyl)thio)quinolin-4(1H)-one], the pIC50 runs as follows: under setting [1], less than 5.70; under setting [2], less than 5.70; under setting [3], less than 5.70; under setting [4], less than 5.70; under setting [5], less than 5.00; under setting [6], less than 5.70. The pIC50 under setting [7] is less than 5.70, the pIC50 under setting [8] was less than 5.70 and the pIC50 under setting [9] was less than 5.70.

Take `CC(=O)c1c(SCc2cc(F)cc(F)c2)[nH]c2c(Br)ccc(Cl)c2c1=O` [Compound 45, 3-acetyl-8-bromo-5-chloro-2-((3,5-difluorobenzyl)thio)quinolin-4(1H)-one]: the pIC50 by setting is: under setting [1], less than 5.70; under setting [2], less than 5.70; under setting [3], less than 5.70; under setting [4], less than 5.70; under setting [5], less than 5.00; under setting [6], less than 5.70. Also, the pIC50 under setting [7] was less than 5.70, the pIC50 under setting [8] is less than 5.70 and the pIC50 under setting [9] is less than 5.70.

As for `CC(=O)c1c(SCc2cccc(I)c2)[nH]c2c(Br)ccc(Cl)c2c1=O` [Compound 47, 3-acetyl-8-bromo-5-chloro-2-((3-iodobenzyl)thio)quinolin-4(1H)-one], the pIC50 runs as follows: under setting [1], less than 5.70; under setting [2], less than 5.70; under setting [3], less than 5.70; under setting [4], less than 5.70; under setting [5], less than 5.00; under setting [6], less than 5.70. Besides, the pIC50 is, setting by setting: under setting [7], less than 5.70; under setting [8], less than 5.70; under setting [9], less than 5.70.

As to `CC(=O)c1c([S+]([O-])Cc2cccc(I)c2)[nH]c2c(Br)ccc(Cl)c2c1=O` (stereo not drawn) [Compound 48, 3-acetyl-8-bromo-5-chloro-2-((3-iodobenzyl)sulfinyl)quinolin-4(1H)-one], the pIC50 was 5.80 under setting [1]; less than 5.70 under setting [2]; less than 5.70 under setting [3]; less than 5.70 under setting [4]; less than 5.00 under setting [5]; less than 5.70 under setting [6]. Moreover, the pIC50 runs as follows: under setting [7], less than 5.70; under setting [8], less than 5.70; under setting [9], less than 5.70.

Regarding `CC(=O)c1c(SCc2cccc(F)c2)[nH]c2c(Br)ccc(Cl)c2c1=O` [Compound 49, 3-acetyl-8-bromo-5-chloro-2-((3-fluorobenzyl)thio)quinolin-4(1H)-one], the pIC50 is, setting by setting: under setting [1], less than 5.70; under setting [2], less than 5.70; under setting [3], less than 5.70; under setting [4], less than 5.70; under setting [5], less than 5.00; under setting [6], less than 5.70. Further, the pIC50 is, setting by setting: under setting [7], less than 5.70; under setting [8], less than 5.70; under setting [9], less than 5.70.

`CC(=O)c1c(SCc2ccccc2)nc2c(Br)ccc(Cl)c2c1O` [Compound 52, 1-(2-(benzylthio)-8-bromo-5-chloro-4-hydroxyquinolin-3-yl)ethan-1-one]: the pIC50 is less than 5.70 under setting [1]; less than 5.70 under setting [2]; less than 5.70 under setting [3]; less than 5.70 under setting [4]; less than 5.00 under setting [5]; less than 5.70 under setting [6]. Also, the pIC50 is, setting by setting: under setting [7], less than 5.70; under setting [8], less than 5.70; under setting [9], less than 5.70.

`CC(=O)c1c([S+]([O-])Cc2ccccc2)nc2c(Br)ccc(Cl)c2c1O` (stereo not drawn) [Compound 53, 1-(2-(benzylsulfinyl)-8-bromo-5-chloro-4-hydroxyquinolin-3-yl)ethan-1-one]: the pIC50 by setting is: under setting [1], less than 5.70; under setting [2], less than 5.70; under setting [3], less than 5.70; under setting [4], less than 5.70; under setting [5], less than 5.00; under setting [6], less than 5.70. Moreover, the pIC50 by setting is: under setting [7], less than 5.70; under setting [8], less than 5.70; under setting [9], less than 5.70.

Consider `CC(=O)c1c(S(=O)(=O)Cc2ccccc2)nc2c(Br)ccc(Cl)c2c1O` [Compound 54, 1-(2-(benzylsulfonyl)-8-bromo-5-chloro-4-hydroxyquinolin-3-yl)ethan-1-one], for which the pIC50 under setting [1] was less than 5.70; the pIC50 under setting [2] was less than 5.70; the negative logarithm of the IC50 (pIC50) under setting [3] is less than 5.70; the pIC50 under setting [4] is less than 5.70; the pIC50 under setting [5] was less than 5.00; the pIC50 under setting [6] was less than 5.70. The pIC50 by setting is: under setting [7], less than 5.70; under setting [8], less than 5.70; under setting [9], less than 5.70.

In the case of `CC(=O)c1c([S+]([O-])Cc2ccccc2C#N)[nH]c2c(Br)ccc(Cl)c2c1=O` (stereo not drawn) [Compound 58, 2-(((3-acetyl-8-bromo-5-chloro-4-oxo-1,4-dihydroquinolin-2-yl)sulfinyl)methyl)benzonitrile], the pIC50 runs as follows: under setting [1], 6.11; under setting [2], 5.96; under setting [3], 5.87; under setting [4], 5.96; under setting [5], less than 5.00; under setting [6], 5.69. Also, the pIC50 reads like this: under setting [7], 5.91; under setting [8], 5.94; under setting [9], 5.95.

With `COCSc1[nH]c2c(Br)ccc(Cl)c2c(=O)c1C(C)=O` [Compound 61, 3-acetyl-8-bromo-5-chloro-2-((methoxymethyl)thio)quinolin-4(1H)-one], the pIC50 by setting is: under setting [1], less than 5.70; under setting [2], less than 5.70; under setting [3], less than 5.70; under setting [4], less than 5.70; under setting [5], less than 5.00; under setting [6], less than 5.70. The pIC50 under setting [7] was less than 5.70, the pIC50 under setting [8] is less than 5.70 and the negative-log IC50 (pIC50) under setting [9] was less than 5.70.

In the case of `CC(=O)c1c(S)[nH]c2c(Br)ccc(Cl)c2c1=O` [Compound 62, 3-acetyl-8-bromo-5-chloro-2-mercaptoquinolin-4(1H)-one], the pIC50 under setting [1] is less than 5.70; the pIC50 under setting [2] is less than 5.70; the pIC50 under setting [3] was less than 5.70; the pIC50 under setting [4] was less than 5.70; the pIC50 under setting [5] is less than 5.00; the pIC50 under setting [6] was less than 5.70. Moreover, the pIC50 reads like this: under setting [7], less than 5.70; under setting [8], less than 5.70; under setting [9], less than 5.70.

Regarding `CC(=O)c1c([S+]([O-])Cc2ccc(C(=O)c3ccccc3)cc2)[nH]c2c(Br)ccc(Cl)c2c1=O` (stereo not drawn) [Compound 63, 3-acetyl-2-((4-benzoylbenzyl)sulfinyl)-8-bromo-5-chloroquinolin-4(1H)-one], the pIC50 under setting [1] was less than 5.70; the pIC50 under setting [2] was less than 5.70; the pIC50 under setting [3] is less than 5.70; the pIC50 under setting [4] was less than 5.70; the pIC50 under setting [5] is less than 5.00; the pIC50 under setting [6] is less than 5.70. The pIC50 reads like this: under setting [7], less than 5.70; under setting [8], less than 5.70; under setting [9], less than 5.70.

`CC(=O)c1c([S+]([O-])CC#N)[nH]c2c(Br)ccc(Cl)c2c1=O` (stereo not drawn) [Compound 65, 2-((3-acetyl-8-bromo-5-chloro-4-oxo-1,4-dihydroquinolin-2-yl)sulfinyl)acetonitrile]: the pIC50 by setting is: under setting [1], less than 5.70; under setting [2], less than 5.70; under setting [3], less than 5.70; under setting [4], less than 5.70; under setting [5], less than 5.00; under setting [6], less than 5.70. Further, the pIC50 under setting [7] was less than 5.70, the pIC50 under setting [8] was less than 5.70 and the pIC50 under setting [9] was less than 5.70.

As for `CC(=O)c1c(SCC#N)[nH]c2c(Br)ccc(Cl)c2c1=O` [Compound 66, 2-((3-acetyl-8-bromo-5-chloro-4-oxo-1,4-dihydroquinolin-2-yl)thio)acetonitrile], the pIC50 was less than 5.70 under setting [1]; less than 5.70 under setting [2]; less than 5.70 under setting [3]; less than 5.70 under setting [4]; less than 5.00 under setting [5]; less than 5.70 under setting [6]. Moreover, the pIC50 runs as follows: under setting [7], less than 5.70; under setting [8], less than 5.70; under setting [9], less than 5.70.

In the case of `CC(=O)c1c(S/C=C\C(=O)O)[nH]c2c(Br)ccc(Cl)c2c1=O` [Compound 67, (Z)-3-((3-acetyl-8-bromo-5-chloro-4-oxo-1,4-dihydroquinolin-2-yl)thio)acrylic acid], the pIC50 is less than 5.70 under setting [1]; less than 5.70 under setting [2]; less than 5.70 under setting [3]; less than 5.70 under setting [4]; less than 5.00 under setting [5]; less than 5.70 under setting [6]. For the same compound, the pIC50 was less than 5.70 under setting [7], less than 5.70 under setting [8] and less than 5.70 under setting [9].

Take `CC(=O)c1c([S+]([O-])Cc2ccc(S(F)(F)(F)(F)F)cc2)[nH]c2c(Br)ccc(Cl)c2c1=O` (stereo not drawn) [Compound 68, 3-acetyl-8-bromo-5-chloro-2-((4-(pentafluoro-16-sulfanyl)benzyl)sulfinyl)quinolin-4(1H)-one]: the pIC50 was 6.11 under setting [1]; 5.96 under setting [2]; 5.89 under setting [3]; 6.01 under setting [4]; less than 5.70 under setting [5]; less than 5.70 under setting [6]. Besides, the pIC50 under setting [7] is 5.76, the pIC50 under setting [8] is 5.78 and the pIC50 under setting [9] is 5.88.

In the case of `CC(=O)c1c([S+]([O-])Cc2ccc(S(F)(F)(F)(F)F)cc2F)[nH]c2c(Br)ccc(Cl)c2c1=O` (stereo not drawn) [Compound 69, 3-acetyl-8-bromo-5-chloro-2-((2-fluoro-4-(pentafluoro-16-sulfanyl)benzyl)sulfinyl)quinolin-4(1H)-one], the pIC50 reads like this: under setting [1], 6.04; under setting [2], 5.82; under setting [3], 5.72; under setting [4], 5.85; under setting [5], less than 5.00; under setting [6], less than 5.70. The pIC50 by setting is: under setting [7], less than 5.70; under setting [8], 5.75; under setting [9], 5.81.

As to `CC(=O)c1c([S+]([O-])Cc2cccc(S(F)(F)(F)(F)F)c2)[nH]c2c(Br)ccc(Cl)c2c1=O` (stereo not drawn) [Compound 77, 3-acetyl-8-bromo-5-chloro-2-((3-(pentafluoro--sulfanyl)benzyl)sulfinyl)quinolin-4(1H)-one], the pIC50 under setting [1] is 6.04; the pIC50 under setting [2] was 5.84; the pIC50 under setting [3] is 5.77; the pIC50 under setting [4] is 5.91; the pIC50 under setting [5] is less than 5.00; the pIC50 under setting [6] was less than 5.70. Moreover, the pIC50 is, setting by setting: under setting [7], 5.74; under setting [8], 5.77; under setting [9], 5.89.

For the compound `CC(=O)c1c([S+]([O-])Cc2ccc(SC(F)(F)F)cc2)[nH]c2c(Cl)ccc(Cl)c2c1=O` (stereo not drawn) [Compound 79, 3-acetyl-5,8-dichloro-2-((4-((trifluoromethyl)thio)benzyl)sulfinyl)quinolin-4(1H)-one], the pIC50 reads like this: under setting [1], less than 5.70; under setting [2], less than 5.70; under setting [3], less than 5.70; under setting [4], less than 5.70; under setting [5], less than 5.00; under setting [6], less than 5.70. Besides, the pIC50 is, setting by setting: under setting [7], less than 5.70; under setting [8], less than 5.70; under setting [9], less than 5.70.
